Article PMC6268315, “Investigating the Spectrum of Biological Activity of Substituted Quinoline-2-Carboxamides and Their Isosteres ^†” (Molecules, 2012)
Several values for one entry are separate records, joined by “and”; a condition that tells them apart may be missing. Equal values may be shown once.

Columns and labels:
[1] = tested on: photosynthetic electron transport (PET) in spinach chloroplasts; assay: Inhibition of photosynthetic electron transport (PET) in spinach chloroplasts; type: biochemical, Spinacia oleracea L.; settings: photoreduction of DCPIP, pH 7.2
Description: Chloroplasts were prepared from spinach (Spinacia oleracea L.) according to Masarovicova and Kralova. The inhibition of photosynthetic electron transport (PET) in spinach chloroplasts was determined spectrophotometrically (Genesys 6, Thermo Scientific, USA), using an artificial electron acceptor 2,6-dichlorophenol-indophenol (DCIPP) according to Kralova et al., and the rate of photosynthetic electron transport was monitored as a photoreduction of DCPIP. The measurements were carried out in phosphate buffer (0.02 mol/L, pH 7.2) containing sucrose (0.4 mol/L), MgCl2 (0.005 mol/L) and NaCl (0.015 mol/L). The chlorophyll content was 30 mg/L in these experiments and the samples were irradiated (~100 W/m^2 with 10 cm distance) with a halogen lamp (250 W) using a 4 cm water filter to prevent warming of the samples (suspension temperature 22 °C). The studied compounds were dissolved in DMSO due to their limited water solubility. […] The inhibitory efficiency of the studied compounds was expressed by IC50 values, i.e., by molar concentration of the compounds causing 50% decrease in the oxygen evolution rate relative to the untreated control.

Structure (SMILES) | melting point | IC50 [1]
O=C(c1ccc2ccccc2n1)N1CCCCC1 [Compound 4, 2-(Piperidin-1-ylcarbonyl)quinoline] | 83 to 84 °C | 
O=C(NCc1ccccc1)c1ccc2ccccc2n1 [Compound 10, N-Benzylquinoline-2-carboxamide] | 123 to 124 °C | 59.4 µM
O=C(Nc1ccccc1O)c1ccc2ccccc2n1 [Compound 12a, N-(2-Hydroxyphenyl)quinoline-2-carboxamide] | 219 to 220 °C | 16.3 µM
O=C(Nc1cccc(O)c1)c1ccc2ccccc2n1 [Compound 12b, N-(3-Hydroxyphenyl)quinoline-2-carboxamide] | 154 to 155 °C | 
O=C(Nc1ccc(O)cc1)c1ccc2ccccc2n1 [Compound 12c, N-(4-Hydroxyphenyl)quinoline-2-carboxamide] | 230 to 231 °C | 
COc1ccccc1NC(=O)c1ccc2ccccc2n1 [Compound 13a, N-(2-Methoxyphenyl)quinoline-2-carboxamide] | 111 to 112 °C | 
COc1cccc(NC(=O)c2ccc3ccccc3n2)c1 [Compound 13b, N-(3-Methoxyphenyl)quinoline-2-carboxamide] | 117 to 118 °C | 
COc1ccc(NC(=O)c2ccc3ccccc3n2)cc1 [Compound 13c, N-(4-Methoxyphenyl)quinoline-2-carboxamide] | 130 to 131 °C | 
Cc1ccccc1NC(=O)c1ccc2ccccc2n1 [Compound 14a, N-(2-Methylphenyl)quinoline-2-carboxamide] | 100 to 101 °C | 143 µM
Cc1ccc(NC(=O)c2ccc3ccccc3n2)cc1 [Compound 14c, N-(4-Methylphenyl)quinoline-2-carboxamide] | 107 to 108 °C | 
O=C(Nc1ccccc1F)c1ccc2ccccc2n1 [Compound 15a, N-(2-Fluorophenyl)quinoline-2-carboxamide] | 116 to 117 °C | 98.1 µM
O=C(Nc1cccc(F)c1)c1ccc2ccccc2n1 [Compound 15b, N-(3-Fluorophenyl)quinoline-2-carboxamide] | 126 to 127 °C | 86.9 µM
O=C(Nc1ccc(F)cc1)c1ccc2ccccc2n1 [Compound 15c, N-(4-Fluorophenyl)quinoline-2-carboxamide] | 115 to 116 °C | 75.3 µM
O=C(Nc1ccccc1Cl)c1ccc2ccccc2n1 [Compound 16a, N-(2-Chlorophenyl)quinoline-2-carboxamide] | 130 to 131 °C | 56.3 µM
O=C(Nc1cccc(Cl)c1)c1ccc2ccccc2n1 [Compound 16b, N-(3-Chlorophenyl)quinoline-2-carboxamide] | 127 to 128 °C | 91.9 µM
O=C(Nc1ccc(Cl)cc1)c1ccc2ccccc2n1 [Compound 16c, N-(4-Chlorophenyl)quinoline-2-carboxamide] | 134 to 135 °C | 148 µM
CC(C)NC(=O)c1ccc2ccccc2c1 [Compound 20, N-Isopropyl-2-naphthamide] | 174 to 176 °C | 353 µM
CCCCCCCCCCCCNC(=O)c1ccc2ccccc2c1 [Compound 21, N-Dodecyl-2-naphthamide] | 102 to 103 °C | 845 µM
O=C(c1ccc2ccccc2c1)N1CCCCC1 [Compound 23, 1-(2-Naphthoyl)piperidine] | 97 to 98 °C | 
O=C(NC1CCCC1)c1ccc2ccccc2c1 [Compound 24, N-Cyclopentyl-2-naphthamide] | 190 to 191 °C | 
O=C(NC1CCCCC1)c1ccc2ccccc2c1 [Compound 25, N-Cyclohexyl-2-naphthamide] | 184 to 185 °C | 
O=C(NC1CCCCCC1)c1ccc2ccccc2c1 [Compound 26, N-Cycloheptyl-2-naphthamide] | 157 to 158 °C | 216 µM
O=C(NC1CCCCCCC1)c1ccc2ccccc2c1 [Compound 27, N-Cyclooctyl-2-naphthamide] | 145 to 146 °C | 688 µM
O=C(Nc1ccccc1)c1ccc2ccccc2c1 [Compound 28, N-Phenyl-2-naphthamide] |  | 20.7 µM
O=C(NCc1ccccc1)c1ccc2ccccc2c1 [Compound 29, N-Benzyl-2-naphthamide] | 138 to 139 °C | 7.5 µM
O=C(NCCc1ccccc1)c1ccc2ccccc2c1 [Compound 30, N-(2-Phenylethyl)-2-naphthamide] | 133 to 134 °C | 
CN(C)C(=O)Nc1ccc(Cl)c(Cl)c1 [DCMU, 3-(3,4-dichlorophenyl)-1,1-dimethylurea, reference compound] |  | ~1.9 µM and 1.9 µM

The remaining lines, values ahead:

melting point | IC50 [1] | Structure (SMILES)
134 to 135 °C | 92.2 µM | O=C(Nc1ccccc1Br)c1ccc2ccccc2n1 [Compound 17a, N-(2-Bromophenyl)quinoline-2-carboxamide]
139 to 140 °C | 409 µM | O=C(Nc1cccc(Br)c1)c1ccc2ccccc2n1 [Compound 17b, N-(3-Bromophenyl)quinoline-2-carboxamide]
157 to 158 °C | 308 µM | O=C(Nc1ccc(Br)cc1)c1ccc2ccccc2n1 [Compound 17c, N-(4-Bromophenyl)quinoline-2-carboxamide]
120 to 121 °C | 109 µM | O=C(Nc1ccccc1C(F)(F)F)c1ccc2ccccc2n1 [Compound 18a, N-(2-Trifluoromethylphenyl)quinoline-2-carboxamide]
121 to 122 °C | 330 µM | O=C(Nc1cccc(C(F)(F)F)c1)c1ccc2ccccc2n1 [Compound 18b, N-(3-Trifluoromethylphenyl)quinoline-2-carboxamide]
147 to 148 °C |  | O=C(Nc1ccc(C(F)(F)F)cc1)c1ccc2ccccc2n1 [Compound 18c, N-(4-Trifluoromethylphenyl)quinoline-2-carboxamide]
181 to 182 °C |  | O=C(Nc1ccccc1[N+](=O)[O-])c1ccc2ccccc2n1 [Compound 19a, N-(2-Nitrophenyl)quinoline-2-carboxamide]
189 to 190 °C |  | O=C(Nc1cccc([N+](=O)[O-])c1)c1ccc2ccccc2n1 [Compound 19b, N-(3-Nitrophenyl)quinoline-2-carboxamide]
227 to 228 °C |  | O=C(Nc1ccc([N+](=O)[O-])cc1)c1ccc2ccccc2n1 [Compound 19c, N-(4-Nitrophenyl)quinoline-2-carboxamide]
194 °C |  | O=C(Nc1cccc(O)c1)c1ccc2ccccc2c1 [Compound 31b, N-(3-Hydroxyphenyl)-2-naphthamide]
142 °C | 306 µM | COc1cccc(NC(=O)c2ccc3ccccc3c2)c1 [Compound 32b, N-(3-Methoxyphenyl)-2-naphthamide]
146 °C |  | Cc1ccccc1NC(=O)c1ccc2ccccc2c1 [Compound 33a, N-(2-Methylphenyl)-2-naphthamide]
160 °C |  | Cc1cccc(NC(=O)c2ccc3ccccc3c2)c1 [Compound 33b, N-(3-Methylphenyl)-2-naphthamide]
195 °C |  | Cc1ccc(NC(=O)c2ccc3ccccc3c2)cc1 [Compound 33c, N-(4-Methylphenyl)-2-naphthamide]
122 °C |  | O=C(Nc1ccccc1F)c1ccc2ccccc2c1 [Compound 34a, N-(2-Fluorophenyl)-2-naphthamide]
167 °C |  | O=C(Nc1cccc(F)c1)c1ccc2ccccc2c1 [Compound 34b, N-(3-Fluorophenyl)-2-naphthamide]
191 °C |  | O=C(Nc1ccc(F)cc1)c1ccc2ccccc2c1 [Compound 34c, N-(4-Fluorophenyl)-2-naphthamide]
116 °C |  | O=C(Nc1ccccc1Cl)c1ccc2ccccc2c1 [Compound 35a, N-(2-Chlorophenyl)-2-naphthamide]
180 °C | 81 µM | O=C(Nc1cccc(Cl)c1)c1ccc2ccccc2c1 [Compound 35b, N-(3-Chlorophenyl)-2-naphthamide]
218 °C |  | O=C(Nc1ccc(Cl)cc1)c1ccc2ccccc2c1 [Compound 35c, N-(4-Chlorophenyl)-2-naphthamide]
123 °C |  | O=C(Nc1ccccc1Br)c1ccc2ccccc2c1 [Compound 36a, N-(2-Bromophenyl)-2-naphthamide]
193 °C | 103 µM | O=C(Nc1cccc(Br)c1)c1ccc2ccccc2c1 [Compound 36b, N-(3-Bromophenyl)-2-naphthamide]
231 °C |  | O=C(Nc1ccc(Br)cc1)c1ccc2ccccc2c1 [Compound 36c, N-(4-Bromophenyl)-2-naphthamide]
150 °C | 309 µM | O=C(Nc1cccc(C(F)(F)F)c1)c1ccc2ccccc2c1 [Compound 37b, N-(3-Trifluoromethylphenyl)-2-naphthamide]
224 °C |  | O=C(Nc1ccc(C(F)(F)F)cc1)c1ccc2ccccc2c1 [Compound 37c, N-(4-Trifluoromethylphenyl)-2-naphthamide]
136 °C |  | O=C(Nc1ccccc1[N+](=O)[O-])c1ccc2ccccc2c1 [Compound 38a, N-(2-Nitrophenyl)-2-naphthamide]
177 °C | 633 µM | O=C(Nc1cccc([N+](=O)[O-])c1)c1ccc2ccccc2c1 [Compound 38b, N-(3-Nitrophenyl)-2-naphthamide]
